What was measured:
[1] = tested on: ovarian cancer cell lines (SKOV3, OVCAR3, HEY A8, HEY A8 MDR); test: Cell viability (CellTiter-Glo) in a panel of four ovarian cancer cell lines; assay type: cell-based; settings: increasing doses, 18 hours
Description: (A) SKOV3, (B) OVCAR3 (C) HEY A8 and (D) HEY A8 MDR cells were treated with increasing doses of SW43, SW IV-52, SW43 plus SW IV-52, and SW IV-134 for 18 hours. Cell viability was determined by CellTiter-Glo assays [p < 0.015 (A), NS (B), p < 0.017 (C), p < 0.034 (D), one-way ANOVA].
Cells (1 × 10^4) were seeded into 96 well plates. Treatment as described in the figure legends was initiated the following day. Cell viability was determined 18 hours after treatment using CellTiter-Glo Luminiscent Viability Assay (Promega, Madison, WI). Data were recorded with a SpectraMax Gemini microplate spectrofluorometer, Molecular Devices (Silicon Valley, CA).

NIK = test: Western blot for NF-қB-inducing kinase (NIK); assay type: cell-based; settings: SKOV3 cells, 10 μM, 4 hours
Description: Figure 4 SW IV-134 engages in SMAC-dependent pathway activation. (A) SKOV3 cells were treated with vehicle only (Ctrl.), SW43 (10 μM), and SW IV-134 (10 μM) for 4 hours and cell lysates were subjected to Western blot analysis using antibodies against XIAP, cIAP-1, cIAP-2, NF-қB and NIK. While XIAP seems unaffected under the conditions used, cIAP-1 and cIAP-2 proteins are readily undetectable shortly post treatment. SW IV-134 treatment also leads to accumulation of NF-қB inducing kinase (NIK) and activation of NF-қB pathway. (B) SKOV3 cells were treated with SW IV-134 at the indicated doses either alone or in the presence of proteasome inhibitor MG132 (20 μM) for 18 hours. […] Cell viability was determined as described in the experimental methods (p < 0.011, Student’s t-test).
Cells were lysed in radioimmunoprecipitation assay buffer [50 mM Tris, 150 mM sodium chloride, 1.0 mM EDTA, 1% Nonidet P40, and 0.25% SDS (pH 7.0)], supplemented with complete protease inhibitor cocktail (Roche, Mannheim) and phosphatase inhibitor cocktail 1 (Sigma Chemical Co., St. Louis, MO). The protein concentration was determined using a BioRad Dc protein assay kit (Bio-Rad Laboratories, Hercules, CA). Lysates containing 30 μg of protein were run on a 12% polyacrylamide gel and transferred to a PVDF membrane (Bio-Rad Laboratories, Hercules, CA). […]

[2] = Adverse effects after 3 weeks of intraperitoneal treatment: necropsy, complete blood count, serum chemistries; assay type: in vivo, SCID mice; settings: for Peritonitis at necropsy: also seen in vehicle treated mice
Description: In vivo experiments were conducted with 15 mice per treatment group. Treatment involved daily intraperitoneal injections with 90 μL of SW43 (7.5 mM stock), SW IV-134 (7.5 mM stock), or vehicle-only (25% cremophor in H2O) for 3 weeks. Tumor burden was monitored by bioluminescence imaging once a week during the treatment period. At the end of the treatment, 5 mice were randomly removed per treatment group and submitted for necropsy to the Washington University Department of Comparative Medicine. Blood samples were collected by intracardiac withdrawal prior to necropsy for chemistry and hematology work-up. In addition, various key organs were harvested for gross and histopathological examination. The remaining 10 mice from each treatment group were followed over time to examine overall survival. For survival studies, actual death or poor physical condition/large tumor size meeting criteria for euthanasia, constituted a death event.
Supplementary file 1476-4598-13-50-S6.pdf: Additional file 6: Table S2 Complete blood count and serum chemistries for severe combined immunodeficient (SCID) mice treated with SW IV-134, SW43, and vehicle control. SCID mice were treated daily with intra-peritoneal injections of SW IV-134, SW43, and vehicle control for 3 weeks. At the end of treatment, blood was collected from mice in each treatment group and analyzed for hemoglobin, white blood count, and platelets. Serum chemistries were also obtained to determine the levels of liver enzymes aspartate aminotransferase (AST) and alanine aminotransferase (ALT), renally cleared metabolites blood urea nitrogen (BUN) and creatinine, as well as total protein and glucose. The mice treated with SW134 were noted to have a statistically significant decrease in hemoglobin and an increase in white blood count compared to those treated with SW43 or vehicle control. Click here for file […]
Table S2: Complete b l o od count and ser um chemistries f or SCI D mice treated with SW IV-134, SW43, and vehicle. SC ID m ic e were treated daily with intra- peritoneal injections of SW 134, SW 43, and vehicle control fo r 3 weeks. At the end of treatment, bloo d was co lle ct ed from mice in each treatment gro up and analyzed for hemoglobin, w hit e bloo d co un t , and plate lets. S e r um chemistries were also obtained to determine the levels of l iv e r enzymes as pa rt at e aminotransferase ( A ST ) and alanine aminotransferase (ALT), renally cleared metabolites blood urea nitrogen ( BUN) and creatinine, as well as tot al protein a nd gl uco s e. The mice treated w it h SW IV- 134 were no te d to have a statistically significant decrease in hemoglobin and an increase in w hit e bloo d co u nt compared to those treated with SW43 or vehicle control.

[3] = SCID mice, daily i.p. 3 weeks, end of treatment

Row | SMILES | Killing activity (cell viability) [1] | Accumulation of NIK (NIK) | ALT, mean [2, 3] [u/L] | AST, mean [2, 3] [u/L] | BUN, mean [2, 3] [mg/dL] | Creatinine, mean [2, 3] [mg/dL] | Glucose, mean [2, 3] [mg/dL] | Hemoglobin, mean [2, 3] [g/dL] | Platelet, mean [2, 3] | Total bilirubin, mean [2, 3] [mg/dL] | Total protein, mean [2, 3] [g/dL] | WBC, mean [2, 3] | Splenomegaly ([2]; i.p. daily for 3 weeks) | Peritonitis at necropsy ([2]; i.p. daily for 3 weeks)
1 | COc1ccc(C)cc1NC(=O)OC1CC2CCCC(C1)N2CCCCCCCCCCN[C@@H](C)C(=O)N[C@H](C(=O)N1CCC[C@H]1C(=O)N[C@@H]1CCCc2ccccc21)C(C)(C)C (stereo partly drawn) [SW IV-134] | greater cytotoxicity | accumulation of NIK | 84.0 | 91.4 | 24.8 | 0.4 | 103.6 | 9.5 | 1063.8 103 /µl | 0.1 | 6.0 | 19.3 103 /µl | mild splenomegaly | mild to moderate peritonitis
2 | COc1ccc(C)cc1NC(=O)OC1CC2CCCC(C1)N2CCCCCCCCCCN (stereo not drawn) [SW43, reference compound] | effective against different ovarian cancer cell lines | not seen | 56.0 |  | 22.3 | 0.3 |  | 11.7 |  | 0.1 | 5.8 | 3.2 103 /µl |  | mild to moderate peritonitis

Reference: article PMC4015918, “Conjugation to a SMAC mimetic potentiates sigma-2 ligand induced tumor cell death in ovarian cancer” (Molecular Cancer, 2014)
